Measured values from US12060387B2, “Polypeptide-based shuttle agents for improving the transduction efficiency of polypeptide cargos to the cytosol of target eukaryotic cells, uses thereof, methods and kits relating to same” (priority 2015, dated 2024).
Like-named read-outs stand apart in the source and are kept apart here. Where no end group is shown, it is not given here.

Experiments:
HeLa cells [1] = experiment: GFP transduction efficiency, flow cytometry (% GFP-positive cells); assay type: cell-based, Human; settings: for Mean (%) (n = 3), FIG. 7B: shuttle 2.5 μM
Protocol: GFP, GFP-NLS and TAT-GFP are recombinant proteins developed and produced by Feldan (see Example 3.4 below).
Briefly, GFP recombinant protein was co-incubated with different concentrations of CM18-TAT-Cys or dimerized CM18-TAT-Cys (dCM18-TAT-Cys), and then exposed to HeLa cells for 1 hour.
Briefly, GFP recombinant protein (5 μM) was co-incubated with different concentrations and combinations of CM18-TAT-Cys, CM18-Penetratin-Cys, and dimers of each (dCM18-TAT-Cys, dCM18-Penetratin-Cys), and then exposed to HeLa cells for 1 hour. […] The results are shown in Table 3.3 and FIG. 8, as well as in Table 3.4 and FIG. 9.

HeLa cells [2] = experiment: GFP-NLS transduction efficiency, flow cytometry (Pos cells %, relative fluorescence intensity FL1-A); assay type: cell-based, Human; settings: GFP-NLS 5 μM, 1 hour
primary myoblasts = experiment: Calcein endosomal escape assay, quantification by flow cytometry; assay type: cell-based, Human
Protocol: (§1) In addition to microscopy, flow cytometry allows a more quantitative analysis of the endosomal leakage as the fluorescence intensity signal increases once the calcein is released in the cytoplasm. Calcein fluorescence is optimal at physiological pH (e.g., in the cytosol), as compared to the acidic environment of the endosome.
(§2) The cells were allowed to attach by incubating overnight in appropriate growth media, as described in Example 1. The next day, the media in wells was removed and replaced with 50 μL of fresh media without serum containing 62.5 μg/mL (100 μM) of calcein, except for HEK293A (250 μg/mL, 400 μM). At the same time, the shuttle agent(s) to be tested was added at a predetermined concentration. The plate was incubated at 37° C. for 30 minutes. The cells were washed with 1×PBS (37° C.) and fresh media containing 5-10% serum was added. The plate was incubated at 37° C. for 2.5 hours. The cells were washed with 1×PBS and detached using trypsinization.
(§3) Untreated calcein-loaded cells were used as a control to distinguish cells having a baseline of fluorescence due to endosomally-trapped calcein from cells having increased fluorescence due to release of calcein from endosomes. Fluorescence signal means (“mean counts”) were analyzed for endosomal escape quantification. In some cases, the “Mean Factor” was calculated, which corresponds to the fold-increase of the mean counts relative to control (untreated calcein-loaded cells). […] The cellular mortality was monitored with the percentage of cells in the total events scanned. When it became lower than the control, it was considered that the number of cellular debris was increasing due to toxicity and the assay was discarded.
To examine the effects of the shuttle agents on primary cells, primary myoblast cells were cultured and tested in the endosomal escape assays as described in Example 2.1. The results of flow cytometry analyses are summarized below in Tables 2.9 and 2.10, and in FIG. 4. In each case, the flow cytometry results were also confirmed by fluorescence microscopy.

HeLa cells [3] = assay type: cell-based, Human
Protocol: as §1, §2, §3
HeLa cells were cultured and tested in the endosomal escape assays as described in Example 2.1. In each case, the flow cytometry results were also confirmed by fluorescence microscopy (data not shown).

[4] = Cell toxicity / % cell viability by flow cytometry (cells in total events v. untreated); assay type: cell-based, human; settings: human, THP-1 cells, Cell viability (%) (±St. Dev.; n = 3), FIG. 17B; THP-1; GFP-NLS 5 μM; shuttle 1 μM; 5 minutes
Source text: (§4) The fluorescence of GFP was quantified using flow cytometry (Accuri C6, Becton, Dickinson and Company (BD)). Untreated cells were used to establish a baseline in order to quantify the increased fluorescence due to the internalization of the fluorescent protein in treated cells. The percentage of cells with a fluorescence signal above the maximum fluorescence of untreated cells, “mean %” or “Pos cells (%)”, is used to identify positive fluorescent cells. “Relative fluorescence intensity (FL1-A)” corresponds to the mean of all fluorescence intensities from each cell with a fluorescent signal after fluorescent protein delivery with the shuttle agent. Also, the events scanned by flow cytometry corresponding to cells (size and granularity) were analyzed. The cellular toxicity (% cell viability) was monitored comparing the percentage of cells in the total events scanned of treated cells comparatively to untreated cells.

HeLa cells [5] = experiment: as above; assay type: cell-based, Human; settings: HeLa; GFP-NLS 5 μM; shuttle 1 μM; 1 hour
Source text: as §4

[6] = as above; assay type: cell-based, Human; settings: human, HeLa cells, HeLa, 1 hour; for viability at 1 h, 0.5 µM / viability at 1 h, 1 µM / viability at 1 h, 3 µM / viability at 1 h, 5 µM: Cell viability (%) (±St. Dev.; n = 3), read-out: Cell viability (%) (±St. Dev.; n = 3); for viability at 1 h, 0.5 µM: shuttle 0.5 μM; for viability at 1 h, 1 µM: shuttle 1 μM; for viability at 1 h, 3 µM: shuttle 3 μM; for viability at 1 h, 5 µM: shuttle 5 μM
Source text: as §4

[7] = FIG. 11B, TAT-GFP 5 μM, FIG. 11B
[8] = FIG. 13B, GFP-NLS 5 μM, FIG. 13B
[9] = FIG. 21B, GFP-NLS 5 μM, FIG. 21B

What does the source list for “KWKLFKKIGAVLKVLTTGYGRKKRRQRRRC [dCM18-TAT-Cys]”?
GFP transduction efficiency / intracellular delivery (in words) (HeLa cells [1]; GFP 5 μM, 1 hour, Table 3.3 and FIG. 8): increased; GFP transduction efficiency / intracellular delivery (in words) (HeLa cells [1]; GFP 5 μM, 1 hour, Table 3.4 and FIG. 9): increased; Mean (%) (n = 3), FIG. 8 (HeLa cells [1]; GFP 5 μM, shuttle 0.5 μM, 1 hour): 8.86%; Mean (%) (n = 3), FIG. 9 (HeLa cells [1]; GFP 5 μM, shuttle 1 μM, 1 hour): 18.43%; Mean (%) (n = 3), FIG. 7B (HeLa cells [1]; GFP 1 μM): 9.38%; Mean (%) (n = 3), FIG. 7B (HeLa cells [1]; GFP 5 μM): 22.2%; Mean (%) (n = 3), FIG. 7B (HeLa cells [1]; GFP 10 μM): 34.2%; GFP-NLS transduction efficiency / intracellular delivery (in words) (HeLa cells [2]; Tables 5.2, 5.3, FIGS. 14, 15): increased; Mean (%) (n = 3), FIG. 14 (HeLa cells [2]; shuttle 0.5 μM): 8.29%; Mean (%) (n = 3), FIG. 15 (HeLa cells [2]; shuttle 1 μM): 17.83%; Mean counts (primary myoblasts; primary myoblasts, peptide 2.5 μM, Table 2.11): 64 864; Mean Factor (primary myoblasts; primary myoblasts, peptide 2.5 μM, factor v. no peptide): 2.1; Mean Factor (HeLa cells [3]; Table 2.6, dimer 2 μM): 1.3; Mean counts (n = 4) (HeLa cells [3]; Table 2.6, dimer 2 μM): 79 380; Mean Factor (HeLa cells [3]; Table 2.7, dimer 2 μM): 3.1; Mean counts (n = 3) (HeLa cells [3]; Table 2.7, dimer 2 μM): 174 274

Which viability at 5 min, 1 µM [4] does the source give for “KWKLFKKIGAVLKVLTTGYGRKKRRQRRRC [CM18-TAT-Cys]” here?
Its viability at 5 min, 1 µM is 85 ± 6%.

And the “Cell viability (%) (±St. Dev.; n = 3), FIG. 21B” value (HeLa cells [5])?
Its value is 94 ± 4.28%.

And the viability at 1 h, 0.5 µM ([6]; FIG. 6B, GFP 5 μM, FIG. 6B)?
The viability at 1 h, 0.5 µM was 88.4 ± 6%.

What about the viability at 1 h, 1 µM ([6]; FIG. 6B, GFP 5 μM, FIG. 6B) of the same sequence?
Its viability at 1 h, 1 µM is 90 ± 6%.

And the viability at 1 h, 3 µM ([6]; FIG. 6B, GFP 5 μM, FIG. 6B)?
Its viability at 1 h, 3 µM is 91 ± 5%.

What about the viability at 1 h, 5 µM ([6]; FIG. 6B, GFP 5 μM, FIG. 6B) of the same sequence?
The viability at 1 h, 5 µM was 90 ± 7%.

What about the viability at 1 h, 0.5 µM [6, 7] of the same sequence?
Its viability at 1 h, 0.5 µM is 84.4 ± 5%.

And the viability at 1 h, 1 µM [6, 7]?
Its viability at 1 h, 1 µM is 89.3 ± 5.26%.

What about the viability at 1 h, 3 µM [6, 7] of the same sequence?
The viability at 1 h, 3 µM was 93.2 ± 6.28%.

What about the viability at 1 h, 5 µM [6, 7] of the same sequence?
Its viability at 1 h, 5 µM is 95.1 ± 5.28%.

What about the viability at 1 h, 0.5 µM [6, 8] of the same sequence?
Its viability at 1 h, 0.5 µM is 87.6 ± 4%.

What about the viability at 1 h, 1 µM [6, 8] of the same sequence?
The viability at 1 h, 1 µM was 93 ± 8%.

And the viability at 1 h, 3 µM [6, 8]?
Its viability at 1 h, 3 µM is 94 ± 5%.

And the viability at 1 h, 5 µM [6, 8]?
Its viability at 1 h, 5 µM is 93 ± 4%.

What about the viability at 1 h, 3 µM [6, 9] of the same sequence?
Its viability at 1 h, 3 µM is 89 ± 5.37%.

And the viability at 1 h, 5 µM [6, 9]?
The viability at 1 h, 5 µM was 81 ± 6.34%.

What about the viability at 1 h, 3.5 µM ([6]; antibody 0.5 μM, shuttle 3.5 μM, read-out: Cell viability (%) (± St. Dev.; n = 3), FIG. 19B) of the same sequence?
Its viability at 1 h, 3.5 µM is 95 ± 4.06%.

And the “concentrations associated with an increase in cell toxicity” value (primary myoblasts; myoblast cells)?
Its value is “above 10 μM”.
